Values of other authors as cited in article PMC6108082 (Journal of medicinal chemistry, 2018).

System: P-glycoprotein

CCCc1ccc(-c2ccc(N(C[C@@H](N)[C@@H](C)CC)C(=O)[C@@H]3C[C@H]3c3ccccn3)cc2)cc1.Cl [compound 1, 2-PCCA]
P-glycoprotein substrate activity: substrate of P-glycoprotein
